From ChEMBL document CHEMBL3243997, “(Acylaryloxy)acetic acid diuretics. 2. (2-Alkyl-2-aryl-1-oxo-5-indanyloxy)acetic acids” (1978)

Test system: Pan troglodytes
Test: Natriuretic activity in chimpanzee assessed as change in Curate to Cinsulin ratio at 5 mg/kg, po
Assay type: functional
Details: not given

Structure (SMILES)	Ratio
CCC1(c2ccccc2)Cc2cc(OCC(=O)O)c(Cl)c(Cl)c2C1=O (stereo not given)	0.12
CC1(c2ccc(S(N)(=O)=O)cc2)Cc2cc(OCC(=O)O)c(Cl)c(Cl)c2C1=O (stereo not given)	0
CC1(c2ccc(CN)cc2)Cc2cc(OCC(=O)[O-])c(Cl)c(Cl)c2C1=O.[Na+] (stereo not given)	0
COc1ccc(C2(C)Cc3cc(OCC(=O)O)c(Cl)c(Cl)c3C2=O)cc1 (stereo not given)	0.01
Cc1c(OCC(=O)O)cc2c(c1Cl)C(=O)C(C)(c1ccccc1)C2 (stereo not given)	0.31
CC1(c2ccc(Cl)cc2)Cc2cc(OCC(=O)O)c(Cl)c(Cl)c2C1=O (stereo not given)	0.25
CC1(c2ccc(N)cc2)Cc2cc(OCC(=O)O)c(Cl)c(Cl)c2C1=O (stereo not given)	0.1
CC1(c2cccs2)Cc2cc(OCC(=O)O)c(Cl)c(Cl)c2C1=O (stereo not given)	0.47

Same assay, conditions: 5 mg/kg

Structure (SMILES)	Ratio
CC1(c2ccccc2)Cc2cc(OCC(=O)O)c(Cl)c(Cl)c2C1=O (single isomer, unassigned; (+)) [INDACRINONE]	0.16
CC1(c2ccccc2)Cc2cc(OCC(=O)O)c(Cl)c(Cl)c2C1=O (racemic) [INDACRINONE]	0.38
CC1(c2ccccc2)Cc2cc(OCC(=O)O)c(Cl)c(Cl)c2C1=O (single isomer, unassigned; (-)) [INDACRINONE]	0.28

Test system: Rattus norvegicus
Test: Natriuretic activity in rat assessed as per cage at 9 mg/kg, po
Assay type: functional
Details: not given

Structure (SMILES)	Activity
CCC1(c2ccccc2)Cc2cc(OCC(=O)O)c(Cl)c(Cl)c2C1=O (stereo not given)	1.15 mEq
CC1(c2ccc(S(N)(=O)=O)cc2)Cc2cc(OCC(=O)O)c(Cl)c(Cl)c2C1=O (stereo not given)	0.29 mEq
CC1(c2ccc(CN)cc2)Cc2cc(OCC(=O)[O-])c(Cl)c(Cl)c2C1=O.[Na+] (stereo not given)	0.17 mEq
COc1ccc(C2(C)Cc3cc(OCC(=O)O)c(Cl)c(Cl)c3C2=O)cc1 (stereo not given)	0.76 mEq
Cc1c(OCC(=O)O)cc2c(c1Cl)C(=O)C(C)(c1ccccc1)C2 (stereo not given)	1.16 mEq
CC1(c2ccc(Cl)cc2)Cc2cc(OCC(=O)O)c(Cl)c(Cl)c2C1=O (stereo not given)	0.3 mEq
CC1(c2ccc(N)cc2)Cc2cc(OCC(=O)O)c(Cl)c(Cl)c2C1=O (stereo not given)	0.53 mEq
NS(=O)(=O)c1cc2c(cc1Cl)NCNS2(=O)=O [HYDROCHLOROTHIAZIDE]	1.12 mEq
CC1(c2cccs2)Cc2cc(OCC(=O)O)c(Cl)c(Cl)c2C1=O (stereo not given)	0.79 mEq

Same assay, conditions: 9 mg/kg

Structure (SMILES)	Activity
CC1(c2ccccc2)Cc2cc(OCC(=O)O)c(Cl)c(Cl)c2C1=O (single isomer, unassigned; (+)) [INDACRINONE]	0.38 mEq
CC1(c2ccccc2)Cc2cc(OCC(=O)O)c(Cl)c(Cl)c2C1=O (racemic) [INDACRINONE]	0.97 mEq
CC1(c2ccccc2)Cc2cc(OCC(=O)O)c(Cl)c(Cl)c2C1=O (single isomer, unassigned; (-)) [INDACRINONE]	1.21 mEq

Test system: Rattus norvegicus
Test: Natriuretic activity in rat assessed as per cage at 3 mg/kg, po
Assay type: functional
Details: not given

Structure (SMILES)	Activity
CCC1(c2ccccc2)Cc2cc(OCC(=O)O)c(Cl)c(Cl)c2C1=O (stereo not given)	0.75 mEq
CC1(c2ccc(S(N)(=O)=O)cc2)Cc2cc(OCC(=O)O)c(Cl)c(Cl)c2C1=O (stereo not given)	0.32 mEq
CC1(c2ccc(CN)cc2)Cc2cc(OCC(=O)[O-])c(Cl)c(Cl)c2C1=O.[Na+] (stereo not given)	0.18 mEq
COc1ccc(C2(C)Cc3cc(OCC(=O)O)c(Cl)c(Cl)c3C2=O)cc1 (stereo not given)	0.45 mEq
Cc1c(OCC(=O)O)cc2c(c1Cl)C(=O)C(C)(c1ccccc1)C2 (stereo not given)	1.35 mEq
CC1(c2ccc(Cl)cc2)Cc2cc(OCC(=O)O)c(Cl)c(Cl)c2C1=O (stereo not given)	0.21 mEq
CC1(c2ccc(N)cc2)Cc2cc(OCC(=O)O)c(Cl)c(Cl)c2C1=O (stereo not given)	0.33 mEq
CC1(c2cccs2)Cc2cc(OCC(=O)O)c(Cl)c(Cl)c2C1=O (stereo not given)	0.46 mEq

Same assay, conditions: 3 mg/kg

Structure (SMILES)	Activity
CC1(c2ccccc2)Cc2cc(OCC(=O)O)c(Cl)c(Cl)c2C1=O (single isomer, unassigned; (+)) [INDACRINONE]	0.77 mEq
CC1(c2ccccc2)Cc2cc(OCC(=O)O)c(Cl)c(Cl)c2C1=O (racemic) [INDACRINONE]	0.86 mEq
CC1(c2ccccc2)Cc2cc(OCC(=O)O)c(Cl)c(Cl)c2C1=O (single isomer, unassigned; (-)) [INDACRINONE]	1.01 mEq

Test system: Pan troglodytes
Test: Natriuretic activity in chimpanzee assessed as per min at 5 mg/kg, po
Assay type: functional
Details: not given

Structure (SMILES)	Activity
CCC1(c2ccccc2)Cc2cc(OCC(=O)O)c(Cl)c(Cl)c2C1=O (stereo not given)	369 uEq
CC1(c2ccc(S(N)(=O)=O)cc2)Cc2cc(OCC(=O)O)c(Cl)c(Cl)c2C1=O (stereo not given)	674 uEq
CC1(c2ccc(CN)cc2)Cc2cc(OCC(=O)[O-])c(Cl)c(Cl)c2C1=O.[Na+] (stereo not given)	135 uEq
COc1ccc(C2(C)Cc3cc(OCC(=O)O)c(Cl)c(Cl)c3C2=O)cc1 (stereo not given)	459 uEq
Cc1c(OCC(=O)O)cc2c(c1Cl)C(=O)C(C)(c1ccccc1)C2 (stereo not given)	479 uEq
CC1(c2ccc(Cl)cc2)Cc2cc(OCC(=O)O)c(Cl)c(Cl)c2C1=O (stereo not given)	302 uEq
CC1(c2ccc(N)cc2)Cc2cc(OCC(=O)O)c(Cl)c(Cl)c2C1=O (stereo not given)	244 uEq
NS(=O)(=O)c1cc2c(cc1Cl)NCNS2(=O)=O [HYDROCHLOROTHIAZIDE]	144 uEq
CC1(c2cccs2)Cc2cc(OCC(=O)O)c(Cl)c(Cl)c2C1=O (stereo not given)	416 uEq

Same assay, conditions: 5 mg/kg

Structure (SMILES)	Activity
CC1(c2ccccc2)Cc2cc(OCC(=O)O)c(Cl)c(Cl)c2C1=O (single isomer, unassigned; (+)) [INDACRINONE]	221 uEq
CC1(c2ccccc2)Cc2cc(OCC(=O)O)c(Cl)c(Cl)c2C1=O (racemic) [INDACRINONE]	409 uEq
CC1(c2ccccc2)Cc2cc(OCC(=O)O)c(Cl)c(Cl)c2C1=O (single isomer, unassigned; (-)) [INDACRINONE]	743 uEq

Test system: Rattus norvegicus
Test: Natriuretic activity in rat assessed as per cage at 27 mg/kg, po
Assay type: functional
Details: not given

Structure (SMILES)	Activity
CCC1(c2ccccc2)Cc2cc(OCC(=O)O)c(Cl)c(Cl)c2C1=O (stereo not given)	1.19 mEq
CC1(c2ccc(S(N)(=O)=O)cc2)Cc2cc(OCC(=O)O)c(Cl)c(Cl)c2C1=O (stereo not given)	0.86 mEq
CC1(c2ccc(CN)cc2)Cc2cc(OCC(=O)[O-])c(Cl)c(Cl)c2C1=O.[Na+] (stereo not given)	0.27 mEq
COc1ccc(C2(C)Cc3cc(OCC(=O)O)c(Cl)c(Cl)c3C2=O)cc1 (stereo not given)	1.29 mEq
Cc1c(OCC(=O)O)cc2c(c1Cl)C(=O)C(C)(c1ccccc1)C2 (stereo not given)	1.38 mEq
CC1(c2ccc(Cl)cc2)Cc2cc(OCC(=O)O)c(Cl)c(Cl)c2C1=O (stereo not given)	0.25 mEq
CC1(c2ccc(N)cc2)Cc2cc(OCC(=O)O)c(Cl)c(Cl)c2C1=O (stereo not given)	0.98 mEq
CC1(c2cccs2)Cc2cc(OCC(=O)O)c(Cl)c(Cl)c2C1=O (stereo not given)	1.41 mEq

Same assay, conditions: 27 mg/kg

Structure (SMILES)	Activity
CC1(c2ccccc2)Cc2cc(OCC(=O)O)c(Cl)c(Cl)c2C1=O (single isomer, unassigned; (+)) [INDACRINONE]	0.71 mEq
CC1(c2ccccc2)Cc2cc(OCC(=O)O)c(Cl)c(Cl)c2C1=O (racemic) [INDACRINONE]	1.29 mEq
CC1(c2ccccc2)Cc2cc(OCC(=O)O)c(Cl)c(Cl)c2C1=O (single isomer, unassigned; (-)) [INDACRINONE]	1.79 mEq

Test system: Canis familiaris
Test: Diuretic activity in dog assessed as […] urine volume at 5 mg/kg, iv relative to control
Assay type: functional, Canis lupus familiaris
Details: not given

Structure (SMILES)	Activity
CCC1(c2ccccc2)Cc2cc(OCC(=O)O)c(Cl)c(Cl)c2C1=O (stereo not given)	4 mL
CC1(c2ccc(CN)cc2)Cc2cc(OCC(=O)[O-])c(Cl)c(Cl)c2C1=O.[Na+] (stereo not given)	5 mL
Cc1c(OCC(=O)O)cc2c(c1Cl)C(=O)C(C)(c1ccccc1)C2 (stereo not given)	4 mL
CC1(c2ccc(Cl)cc2)Cc2cc(OCC(=O)O)c(Cl)c(Cl)c2C1=O (stereo not given)	6 mL
CC1(c2ccc(N)cc2)Cc2cc(OCC(=O)O)c(Cl)c(Cl)c2C1=O (stereo not given)	10 mL
NS(=O)(=O)c1cc2c(cc1Cl)NCNS2(=O)=O [HYDROCHLOROTHIAZIDE]	3 mL
CC1(c2cccs2)Cc2cc(OCC(=O)O)c(Cl)c(Cl)c2C1=O (stereo not given)	5 mL

Same assay, conditions: 5 mg/kg

Structure (SMILES)	Activity
CC1(c2ccccc2)Cc2cc(OCC(=O)O)c(Cl)c(Cl)c2C1=O (single isomer, unassigned; (+)) [INDACRINONE]	4 mL
CC1(c2ccccc2)Cc2cc(OCC(=O)O)c(Cl)c(Cl)c2C1=O (racemic) [INDACRINONE]	8 mL

Test system: Canis familiaris
Test: Diuretic activity in dog assessed as chloride level in urine per min at 5 mg/kg, iv relative to control
Assay type: functional, Canis lupus familiaris
Details: not given

Structure (SMILES)	Activity
CCC1(c2ccccc2)Cc2cc(OCC(=O)O)c(Cl)c(Cl)c2C1=O (stereo not given)	396 µEq/min
CC1(c2ccc(CN)cc2)Cc2cc(OCC(=O)[O-])c(Cl)c(Cl)c2C1=O.[Na+] (stereo not given)	424 µEq/min
Cc1c(OCC(=O)O)cc2c(c1Cl)C(=O)C(C)(c1ccccc1)C2 (stereo not given)	262 µEq/min
CC1(c2ccc(Cl)cc2)Cc2cc(OCC(=O)O)c(Cl)c(Cl)c2C1=O (stereo not given)	282 µEq/min
CC1(c2ccc(N)cc2)Cc2cc(OCC(=O)O)c(Cl)c(Cl)c2C1=O (stereo not given)	1180 µEq/min
NS(=O)(=O)c1cc2c(cc1Cl)NCNS2(=O)=O [HYDROCHLOROTHIAZIDE]	156 µEq/min
CC1(c2cccs2)Cc2cc(OCC(=O)O)c(Cl)c(Cl)c2C1=O (stereo not given)	598 µEq/min

Same assay, conditions: 5 mg/kg

Structure (SMILES)	Activity
CC1(c2ccccc2)Cc2cc(OCC(=O)O)c(Cl)c(Cl)c2C1=O (single isomer, unassigned; (+)) [INDACRINONE]	304 µEq/min
CC1(c2ccccc2)Cc2cc(OCC(=O)O)c(Cl)c(Cl)c2C1=O (racemic) [INDACRINONE]	1010 µEq/min
CC1(c2ccccc2)Cc2cc(OCC(=O)O)c(Cl)c(Cl)c2C1=O (single isomer, unassigned; (-)) [INDACRINONE]	360 µEq/min

Test system: Rattus norvegicus
Test: Natriuretic activity in rat assessed as per cage at 81 mg/kg, po
Assay type: functional
Details: not given

Structure (SMILES)	Activity
CCC1(c2ccccc2)Cc2cc(OCC(=O)O)c(Cl)c(Cl)c2C1=O (stereo not given)	1.34 mEq
CC1(c2ccc(CN)cc2)Cc2cc(OCC(=O)[O-])c(Cl)c(Cl)c2C1=O.[Na+] (stereo not given)	0.19 mEq
Cc1c(OCC(=O)O)cc2c(c1Cl)C(=O)C(C)(c1ccccc1)C2 (stereo not given)	1.62 mEq
CC1(c2ccc(Cl)cc2)Cc2cc(OCC(=O)O)c(Cl)c(Cl)c2C1=O (stereo not given)	0.37 mEq
CC1(c2ccc(N)cc2)Cc2cc(OCC(=O)O)c(Cl)c(Cl)c2C1=O (stereo not given)	1.34 mEq
CC1(c2cccs2)Cc2cc(OCC(=O)O)c(Cl)c(Cl)c2C1=O (stereo not given)	1.77 mEq

Same assay, conditions: 81 mg/kg

Structure (SMILES)	Activity
CC1(c2ccccc2)Cc2cc(OCC(=O)O)c(Cl)c(Cl)c2C1=O (single isomer, unassigned; (+)) [INDACRINONE]	0.88 mEq
CC1(c2ccccc2)Cc2cc(OCC(=O)O)c(Cl)c(Cl)c2C1=O (racemic) [INDACRINONE]	1.89 mEq
CC1(c2ccccc2)Cc2cc(OCC(=O)O)c(Cl)c(Cl)c2C1=O (single isomer, unassigned; (-)) [INDACRINONE]	2.71 mEq

Test system: Canis familiaris
Test: Diuretic activity in dog assessed as sodium level in urine per min at 5 mg/kg, iv relative to control
Assay type: functional, Canis lupus familiaris
Details: not given

Structure (SMILES)	Activity
CCC1(c2ccccc2)Cc2cc(OCC(=O)O)c(Cl)c(Cl)c2C1=O (stereo not given)	431 µEq/min
CC1(c2ccc(CN)cc2)Cc2cc(OCC(=O)[O-])c(Cl)c(Cl)c2C1=O.[Na+] (stereo not given)	497 µEq/min
Cc1c(OCC(=O)O)cc2c(c1Cl)C(=O)C(C)(c1ccccc1)C2 (stereo not given)	226 µEq/min
CC1(c2ccc(Cl)cc2)Cc2cc(OCC(=O)O)c(Cl)c(Cl)c2C1=O (stereo not given)	305 µEq/min
CC1(c2ccc(N)cc2)Cc2cc(OCC(=O)O)c(Cl)c(Cl)c2C1=O (stereo not given)	1130 µEq/min
NS(=O)(=O)c1cc2c(cc1Cl)NCNS2(=O)=O [HYDROCHLOROTHIAZIDE]	166 µEq/min
CC1(c2cccs2)Cc2cc(OCC(=O)O)c(Cl)c(Cl)c2C1=O (stereo not given)	503 µEq/min

Same assay, conditions: 5 mg/kg

Structure (SMILES)	Activity
CC1(c2ccccc2)Cc2cc(OCC(=O)O)c(Cl)c(Cl)c2C1=O (single isomer, unassigned; (+)) [INDACRINONE]	221 µEq/min
CC1(c2ccccc2)Cc2cc(OCC(=O)O)c(Cl)c(Cl)c2C1=O (racemic) [INDACRINONE]	920 µEq/min
CC1(c2ccccc2)Cc2cc(OCC(=O)O)c(Cl)c(Cl)c2C1=O (single isomer, unassigned; (-)) [INDACRINONE]	314 µEq/min
